Laboratory results from paper PMC4914440 (Pharmacological research, 2016).
Where two headings read alike, the source gives them in different places.

How the values were obtained:
[1] = cited from earlier work
h5-HT2C = molecular target: T1, h5-HT2C (Homo sapiens, UniProt P28335); experiment: Radioligand displacement by a fixed drug concentration, [3H]mesulergine
T1 sequence (P28335 33-458): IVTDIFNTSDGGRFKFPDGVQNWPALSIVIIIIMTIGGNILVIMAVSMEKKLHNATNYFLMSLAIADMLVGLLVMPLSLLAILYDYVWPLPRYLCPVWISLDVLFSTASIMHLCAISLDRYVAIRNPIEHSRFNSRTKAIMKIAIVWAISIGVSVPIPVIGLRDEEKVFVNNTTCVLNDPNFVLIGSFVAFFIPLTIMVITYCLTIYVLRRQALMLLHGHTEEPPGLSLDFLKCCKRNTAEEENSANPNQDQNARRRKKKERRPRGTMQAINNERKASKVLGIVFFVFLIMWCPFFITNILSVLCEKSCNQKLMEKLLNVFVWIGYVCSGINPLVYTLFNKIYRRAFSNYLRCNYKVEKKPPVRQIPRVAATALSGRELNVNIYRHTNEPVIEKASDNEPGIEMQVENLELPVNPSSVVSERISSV

α1β2γ2 GABAA receptors = α1β2γ2 GABAA receptors (Rattus norvegicus, UniProt P18508+P62813+P63138); experiment: Whole cell electrophysiology, GABA-activated currents, HEK293 cells; type: cell-based; settings: 30 μM; for reduction of GABA-activated currents: EC30 GABA (5 μM)
Sequence of α1β2γ2 GABAA receptors (P62813 28-455): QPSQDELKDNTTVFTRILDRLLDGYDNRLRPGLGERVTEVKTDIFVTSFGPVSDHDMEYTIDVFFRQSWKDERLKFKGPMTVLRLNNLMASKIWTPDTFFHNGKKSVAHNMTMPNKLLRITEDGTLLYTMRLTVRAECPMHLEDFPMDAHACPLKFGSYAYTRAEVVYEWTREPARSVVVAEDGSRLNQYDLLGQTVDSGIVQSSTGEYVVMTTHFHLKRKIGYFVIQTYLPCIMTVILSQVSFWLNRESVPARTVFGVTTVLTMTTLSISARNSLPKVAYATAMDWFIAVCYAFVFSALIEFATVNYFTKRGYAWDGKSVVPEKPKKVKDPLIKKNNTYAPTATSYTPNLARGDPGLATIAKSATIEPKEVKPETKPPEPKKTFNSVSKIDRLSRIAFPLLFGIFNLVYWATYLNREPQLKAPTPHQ
Sequence of α1β2γ2 GABAA receptors (P63138 26-474): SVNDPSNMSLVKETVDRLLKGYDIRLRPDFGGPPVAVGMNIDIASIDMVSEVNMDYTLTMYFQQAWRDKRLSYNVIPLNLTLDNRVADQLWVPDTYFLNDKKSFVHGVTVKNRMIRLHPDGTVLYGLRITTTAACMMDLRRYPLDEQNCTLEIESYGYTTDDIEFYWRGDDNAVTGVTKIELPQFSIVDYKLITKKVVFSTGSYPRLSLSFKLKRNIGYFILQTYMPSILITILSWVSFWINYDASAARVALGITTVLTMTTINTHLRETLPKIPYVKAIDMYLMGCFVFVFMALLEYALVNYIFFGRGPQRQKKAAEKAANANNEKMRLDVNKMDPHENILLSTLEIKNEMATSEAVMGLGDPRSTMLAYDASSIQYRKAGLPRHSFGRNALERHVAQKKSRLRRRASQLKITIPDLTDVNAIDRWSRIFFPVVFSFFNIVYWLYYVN
Sequence of α1β2γ2 GABAA receptors (P18508 39-466): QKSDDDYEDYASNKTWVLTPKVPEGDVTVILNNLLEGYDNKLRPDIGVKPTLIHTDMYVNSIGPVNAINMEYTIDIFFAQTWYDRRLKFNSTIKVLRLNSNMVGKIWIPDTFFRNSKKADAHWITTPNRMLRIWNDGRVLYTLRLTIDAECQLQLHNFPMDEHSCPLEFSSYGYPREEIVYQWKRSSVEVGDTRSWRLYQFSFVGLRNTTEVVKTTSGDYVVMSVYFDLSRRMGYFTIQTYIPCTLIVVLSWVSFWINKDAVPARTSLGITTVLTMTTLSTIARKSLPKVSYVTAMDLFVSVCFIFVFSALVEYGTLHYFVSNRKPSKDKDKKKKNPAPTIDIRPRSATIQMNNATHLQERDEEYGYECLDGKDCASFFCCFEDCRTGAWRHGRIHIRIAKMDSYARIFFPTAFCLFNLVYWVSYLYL

r5-HT6 = r5-HT6 (Rattus norvegicus, UniProt P31388); experiment: Radioligand displacement by a fixed drug concentration, [3H]LSD
Sequence of r5-HT6 (P31388 whole entry): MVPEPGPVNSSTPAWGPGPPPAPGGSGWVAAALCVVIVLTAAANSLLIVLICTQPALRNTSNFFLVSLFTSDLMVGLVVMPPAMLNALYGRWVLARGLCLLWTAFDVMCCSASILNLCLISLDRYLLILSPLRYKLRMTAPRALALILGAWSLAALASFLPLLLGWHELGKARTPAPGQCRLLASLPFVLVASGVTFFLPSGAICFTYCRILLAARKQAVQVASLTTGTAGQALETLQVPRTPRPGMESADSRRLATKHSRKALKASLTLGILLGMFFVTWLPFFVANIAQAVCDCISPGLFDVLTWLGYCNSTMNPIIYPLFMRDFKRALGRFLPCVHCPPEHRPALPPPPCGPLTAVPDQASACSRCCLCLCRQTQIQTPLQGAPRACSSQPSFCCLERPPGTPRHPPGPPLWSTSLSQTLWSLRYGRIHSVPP

h5-HT2A = h5-HT2A (Homo sapiens, UniProt P28223)
Sequence of h5-HT2A (P28223 whole entry): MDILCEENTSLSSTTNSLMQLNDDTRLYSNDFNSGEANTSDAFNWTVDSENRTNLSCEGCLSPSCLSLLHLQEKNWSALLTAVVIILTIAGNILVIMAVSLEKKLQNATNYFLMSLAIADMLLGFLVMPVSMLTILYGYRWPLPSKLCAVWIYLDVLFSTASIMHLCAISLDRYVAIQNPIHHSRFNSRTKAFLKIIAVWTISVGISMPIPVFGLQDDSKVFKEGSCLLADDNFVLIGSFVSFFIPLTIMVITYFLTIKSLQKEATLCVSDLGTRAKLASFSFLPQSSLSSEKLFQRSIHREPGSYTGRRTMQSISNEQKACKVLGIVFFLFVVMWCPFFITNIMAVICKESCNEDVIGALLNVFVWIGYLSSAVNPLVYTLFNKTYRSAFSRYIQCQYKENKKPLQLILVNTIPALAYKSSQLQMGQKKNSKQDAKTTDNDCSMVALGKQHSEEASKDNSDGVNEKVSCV

untransfected CHO cells = experiment: Intracellular calcium assay, control cells; type: cell-based; settings: data not shown
untransfected HeLa cells = experiment: cAMP-Glo assay, control cells; type: cell-based, human; settings: efavirenz 30 μM, clozapine 30 μM, 5-HT 1 μM
5-HT6 receptor [2] = molecular target: T2, 5-HT6 receptor (Rattus norvegicus, UniProt P31388); experiment: cAMP-Glo assay of Gs signaling, HeLa cells; type: cell-based
T2 sequence (P31388 whole entry): as the sequence (P31388 whole entry) above

M3 muscarinic receptor = M3 muscarinic receptor (Homo sapiens, UniProt P20309); experiment: Intracellular calcium assay, untransfected HEK293 cells with endogenous receptor; type: cell-based
Sequence of M3 muscarinic receptor (P20309 whole entry): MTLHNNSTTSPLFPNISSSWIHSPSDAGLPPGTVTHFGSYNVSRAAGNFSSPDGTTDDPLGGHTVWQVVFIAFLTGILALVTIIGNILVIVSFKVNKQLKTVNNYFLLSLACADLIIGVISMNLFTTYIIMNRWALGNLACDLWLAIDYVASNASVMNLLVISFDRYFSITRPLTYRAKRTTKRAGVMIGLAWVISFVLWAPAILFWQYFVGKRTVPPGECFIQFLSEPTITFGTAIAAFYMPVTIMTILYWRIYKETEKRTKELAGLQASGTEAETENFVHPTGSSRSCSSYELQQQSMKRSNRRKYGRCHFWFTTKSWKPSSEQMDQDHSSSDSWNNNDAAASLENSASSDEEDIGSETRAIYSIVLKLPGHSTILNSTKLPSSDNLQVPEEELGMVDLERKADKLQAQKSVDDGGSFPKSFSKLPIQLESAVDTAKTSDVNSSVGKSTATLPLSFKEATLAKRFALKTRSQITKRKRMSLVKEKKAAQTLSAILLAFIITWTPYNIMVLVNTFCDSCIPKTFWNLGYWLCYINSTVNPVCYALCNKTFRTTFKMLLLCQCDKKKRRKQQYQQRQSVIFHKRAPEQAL

5-HT2A receptor [3] = molecular target: T3, 5-HT2A receptor (Homo sapiens, UniProt P28223); experiment: Intracellular calcium assay of Gq signaling, HEK293 cells; type: cell-based; settings: for agonist efficacy class: intracellular calcium
T3 sequence (P28223 whole entry): as the sequence (P28223 whole entry) above

5-HT6 receptor [4] = molecular target: T2, 5-HT6 receptor; experiment: Competition radioligand binding, concentration-response
5-HT2A receptor [5] = molecular target: T3, 5-HT2A receptor; settings: cloned human 5-HT2A receptor; cited from earlier work
[6] = test system: endogenous β-adrenergic receptor; experiment: cAMP-Glo assay, untransfected HeLa cells stimulated with; type: cell-based, human

## COc1cccc([C@H](O)C2CCN(CCc3ccc(F)cc3)CC2)c1OC [MDL100,907]
[1]
  effect of pretreatment on efavirenz substitution for LSD: this substitution was blocked by pretreatment

## Cc1cn([C@H]2C[C@H](N=[N+]=[N-])[C@@H](CO)O2)c(=O)[nH]c1=O [ZDV]
h5-HT2C; 10 μM ARV drug, data not shown
  interaction (radioligand displacement): no significant interactions
h5-HT2C; 60 μM ARV drug
  interaction (radioligand displacement): only NVP displayed a significant, albeit comparatively weak interaction, with the 5-HT6 receptor
α1β2γ2 GABAA receptors
  reduction of GABA-activated currents: 36–50 % of control
r5-HT6; 10 μM ARV drug, data not shown
  interaction (radioligand displacement): no significant interactions
r5-HT6; 60 μM ARV drug
  interaction (radioligand displacement): only NVP displayed a significant, albeit comparatively weak interaction, with the 5-HT6 receptor

## Nc1nc(=O)n([C@@H]2CS[C@H](CO)O2)cc1F [FTC]
h5-HT2C; 10 μM ARV drug, data not shown
  interaction (radioligand displacement): no significant interactions
h5-HT2C; 60 μM ARV drug
  interaction (radioligand displacement): only NVP displayed a significant, albeit comparatively weak interaction, with the 5-HT6 receptor
h5-HT2A; 10 μM ARV drug, data not shown
  interaction (radioligand displacement): no significant interactions
h5-HT2A; 60 μM ARV drug
  interaction (radioligand displacement): only NVP displayed a significant, albeit comparatively weak interaction, with the 5-HT6 receptor
α1β2γ2 GABAA receptors
  reduction of GABA-activated currents: 36–50 % of control
r5-HT6; 10 μM ARV drug, data not shown
  interaction (radioligand displacement): no significant interactions
r5-HT6; 60 μM ARV drug
  interaction (radioligand displacement): only NVP displayed a significant, albeit comparatively weak interaction, with the 5-HT6 receptor

## C[N+](C)(C)CCOC(N)=O [carbachol]
Untransfected CHO cells
  Gq-mediated response: No Gq-mediated response

## CN1CCN(C2=Nc3cc(Cl)ccc3Nc3ccccc32)CC1 [clozapine]
Untransfected HeLa cells
  change in cAMP levels: no significant changes in cAMP levels
5-HT6 receptor [2]; 30 μM
  effect on 5-HT agonist effect: completely overcame the agonist effects of 5-HT but also reduced cAMP levels to below basal
  effect on basal cAMP: significantly reduced basal levels of cAMP

## CC(=O)OCC[N+](C)(C)C [acetylcholine]
M3 muscarinic receptor
  receptor activation: activated
Untransfected CHO cells
  Gq-mediated response: No Gq-mediated response

## COc1cc(CC(C)N)c(OC)cc1I (racemic) [(±)-DOI]
5-HT2A receptor [3]
  agonist efficacy class: partial agonists

## Cc1ccnc2c1NC(=O)c1cccnc1N2C1CC1 [NVP]
h5-HT2C; 10 μM ARV drug, data not shown
  interaction (radioligand displacement): no significant interactions
h5-HT2C; 60 μM ARV drug
  interaction (radioligand displacement): only NVP displayed a significant, albeit comparatively weak interaction, with the 5-HT6 receptor
α1β2γ2 GABAA receptors; co-application with GABA
  potentiation of GABA-activated currents: 8%
r5-HT6; 10 μM ARV drug, data not shown
  interaction (radioligand displacement): no significant interactions
r5-HT6; 60 μM ARV drug
  interaction (radioligand displacement): significant, albeit comparatively weak interaction
r5-HT6; 5-HT6 receptor, estimated
  affinity lower than for efavirenz: approximately 30 fold

## CCN(CC)C(=O)[C@@H]1C=C2c3cccc4[nH]cc(c34)C[C@H]2N(C)C1 [LSD, Lysergic acid diethylamide]
5-HT2A receptor [3]
  agonist efficacy class: partial agonists
[1]
  substitution when efavirenz was the discriminative stimulus: partially substituted for efavirenz

## CN1[C@@H]2C[C@@H](OC(=O)[C@H](CO)c3ccccc3)C[C@H]1[C@@H]1O[C@@H]12 [scopolamine]
M3 muscarinic receptor
  block of acetylcholine response: blocked

## NCCc1c[nH]c2ccc(O)cc12 [serotonin, 5-Hydroxytryptamine]
Untransfected HeLa cells
  change in cAMP levels: no significant changes in cAMP levels
5-HT6 receptor [2]
  EC50: 12.7 ± 6.2 nM
5-HT6 receptor [2]; increase in cAMP
  pseudo Hill slope: 1.02 ± 0.35
5-HT6 receptor [4]
  Ki: 105 ± 8 nM
5-HT2A receptor [3]; across serum conditions
  pseudo Hill slope range: 0.55–0.70

## CN1CN(c2ccccc2)C2(CCN(CCCC(=O)c3ccc(F)cc3)CC2)C1=O [[^3H]MSP, [3H]methylspiperone]
5-HT2A receptor [5]
  Kd: 0.246 nM

## CC(C)(C)NC[C@H](O)COc1nsnc1N1CCOCC1 [timolol]
[6]
  effect on (−)-epinephrine stimulated cAMP response: blocked
